Measured values taken from ChEMBL document CHEMBL1201862, “PubChem BioAssay data set” (2004).
The source made the active and inactive calls.

Columns and labels:
[1] = target: T1, High affinity choline transporter 1 (Homo sapiens, UniProt Q9GZV3); assay: CHT inhibitors, dose response, cell-based, 5-point CRC, membrane potential dye (AID 504840); type: functional
T1 sequence (Q9GZV3 whole entry): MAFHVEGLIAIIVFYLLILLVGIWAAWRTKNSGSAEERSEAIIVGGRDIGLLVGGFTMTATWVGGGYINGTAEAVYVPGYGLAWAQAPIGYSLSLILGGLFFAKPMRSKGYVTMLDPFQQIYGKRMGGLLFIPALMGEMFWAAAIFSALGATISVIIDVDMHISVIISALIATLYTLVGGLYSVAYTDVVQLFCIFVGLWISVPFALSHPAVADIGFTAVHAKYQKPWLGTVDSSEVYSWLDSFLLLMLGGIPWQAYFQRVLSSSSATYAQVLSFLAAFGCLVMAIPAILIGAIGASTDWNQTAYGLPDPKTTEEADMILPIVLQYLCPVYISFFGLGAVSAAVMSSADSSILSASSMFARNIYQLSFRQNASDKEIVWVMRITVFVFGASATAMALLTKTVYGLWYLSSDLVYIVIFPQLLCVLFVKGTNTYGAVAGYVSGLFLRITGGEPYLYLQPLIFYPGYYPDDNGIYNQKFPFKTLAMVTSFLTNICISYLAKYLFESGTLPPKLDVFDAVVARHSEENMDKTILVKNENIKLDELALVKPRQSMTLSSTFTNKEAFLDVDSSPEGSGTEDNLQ

[2] = microbe, parasite or virus in culture; type: functional; settings: Mycobacterium tuberculosis
Nonstructural protein 1 = Nonstructural protein 1 (Influenza A virus, UniProt Q194T2); type: functional, Influenza A virus (A/California/07/2009(H1N1))
[3] = target: T2, Short transient receptor potential channel 4 (Mus musculus, UniProt Q9QUQ5); assay: mouse TRPC4 channel activators, dose response, cell-based, HEK293 TRPC4/mu-opioid, Fluo-4 calcium (AID 434937); type: functional
T2 sequence (Q9QUQ5 whole entry): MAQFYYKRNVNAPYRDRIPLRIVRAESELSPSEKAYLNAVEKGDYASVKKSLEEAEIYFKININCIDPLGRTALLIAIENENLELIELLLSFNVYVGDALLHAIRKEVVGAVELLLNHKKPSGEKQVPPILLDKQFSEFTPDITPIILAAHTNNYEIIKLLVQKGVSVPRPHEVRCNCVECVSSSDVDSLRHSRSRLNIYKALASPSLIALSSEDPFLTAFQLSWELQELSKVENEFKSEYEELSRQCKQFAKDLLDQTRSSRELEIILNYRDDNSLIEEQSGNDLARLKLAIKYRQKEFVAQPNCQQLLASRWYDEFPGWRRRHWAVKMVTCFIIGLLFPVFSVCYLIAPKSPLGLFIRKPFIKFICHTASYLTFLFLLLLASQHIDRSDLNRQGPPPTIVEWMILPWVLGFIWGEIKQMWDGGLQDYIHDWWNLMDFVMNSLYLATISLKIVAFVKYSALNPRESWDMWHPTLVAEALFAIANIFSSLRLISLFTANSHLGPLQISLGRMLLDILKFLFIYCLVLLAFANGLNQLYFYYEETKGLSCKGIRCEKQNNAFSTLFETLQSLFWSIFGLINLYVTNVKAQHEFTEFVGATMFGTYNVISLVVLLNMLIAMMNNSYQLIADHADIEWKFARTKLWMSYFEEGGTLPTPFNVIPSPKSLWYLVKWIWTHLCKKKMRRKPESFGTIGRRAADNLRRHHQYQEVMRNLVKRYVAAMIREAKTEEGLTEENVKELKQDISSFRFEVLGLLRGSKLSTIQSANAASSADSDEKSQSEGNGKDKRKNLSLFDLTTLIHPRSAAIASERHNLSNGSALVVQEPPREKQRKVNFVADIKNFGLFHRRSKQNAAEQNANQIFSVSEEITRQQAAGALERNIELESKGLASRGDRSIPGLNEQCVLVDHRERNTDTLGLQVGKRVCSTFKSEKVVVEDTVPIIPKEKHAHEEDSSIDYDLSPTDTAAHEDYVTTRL

Vero = assay: cells; type: functional; settings: Chlorocebus sabaeus
[4] = target: T3, Corticotropin-releasing factor receptor 2/Corticotropin-releasing factor-binding protein (Homo sapiens, UniProt P24387+Q13324); assay: activators of CRF receptor 2 with binding protein – uHTS hits, confirmation (AID 602473); type: functional; settings: read-out: EC50_Mean
T3 sequence (Q13324 whole entry): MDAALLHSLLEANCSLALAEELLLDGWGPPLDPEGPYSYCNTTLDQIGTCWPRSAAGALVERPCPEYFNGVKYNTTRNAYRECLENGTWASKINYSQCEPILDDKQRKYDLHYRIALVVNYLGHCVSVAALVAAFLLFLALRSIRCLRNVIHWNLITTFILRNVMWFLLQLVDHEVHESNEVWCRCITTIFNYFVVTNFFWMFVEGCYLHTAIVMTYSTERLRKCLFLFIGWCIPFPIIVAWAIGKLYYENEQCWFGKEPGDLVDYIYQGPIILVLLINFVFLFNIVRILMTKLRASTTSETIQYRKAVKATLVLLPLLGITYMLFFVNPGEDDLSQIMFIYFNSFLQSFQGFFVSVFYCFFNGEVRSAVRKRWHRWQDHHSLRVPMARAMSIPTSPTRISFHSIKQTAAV
T3 sequence (P24387 whole entry): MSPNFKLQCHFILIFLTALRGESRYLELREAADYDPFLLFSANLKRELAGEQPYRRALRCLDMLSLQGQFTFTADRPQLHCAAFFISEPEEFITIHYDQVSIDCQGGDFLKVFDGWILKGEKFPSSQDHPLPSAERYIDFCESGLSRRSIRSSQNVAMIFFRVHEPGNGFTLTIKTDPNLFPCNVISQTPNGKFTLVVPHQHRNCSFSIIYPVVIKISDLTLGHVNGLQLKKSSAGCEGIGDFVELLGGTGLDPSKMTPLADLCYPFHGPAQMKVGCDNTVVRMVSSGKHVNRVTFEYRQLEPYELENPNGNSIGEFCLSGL

[5] = human group III sPLA2 inhibitors, dose response, biochemical, QFRET, IC50 (AID 743457);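 further: green fluorescence rise as the enzyme cleaves BODIPY PC-A2 in liposomes; potency for inhibition of the enzyme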
HEK293 [6] = assay: NOD1 signaling inhibitors, primary screen, cell-based, luminescence, uHTS (AID 1578); type: functional; settings: Homo sapiens
[7] = tested on: Streptococcus sp. 'group A'; assay: growth inhibition of control SK(-) GAS strain, dose response, counter-screen for streptokinase expression inhibitor project, luminescence, kanamycin, BacTiterGlo, confirmation (AID 1900); type: functional, organism-based
HEK293 [8] = assay: cells; type: functional, cell-based; settings: Homo sapiens
Streptokinase A = target: T4, Streptokinase A (Streptococcus pyogenes serotype M1, UniProt P10520); assay: S. pyogenes streptokinase expression inhibitors, potency, dose response, plasminogen activation absorbance, OD405 (AID 1914); type: functional, Streptococcus pyogenes M1 GAS;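 further: secreted streptokinase activity via plasminogen activation per viability signal from cell pellet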
T4 sequence (P10520 whole entry): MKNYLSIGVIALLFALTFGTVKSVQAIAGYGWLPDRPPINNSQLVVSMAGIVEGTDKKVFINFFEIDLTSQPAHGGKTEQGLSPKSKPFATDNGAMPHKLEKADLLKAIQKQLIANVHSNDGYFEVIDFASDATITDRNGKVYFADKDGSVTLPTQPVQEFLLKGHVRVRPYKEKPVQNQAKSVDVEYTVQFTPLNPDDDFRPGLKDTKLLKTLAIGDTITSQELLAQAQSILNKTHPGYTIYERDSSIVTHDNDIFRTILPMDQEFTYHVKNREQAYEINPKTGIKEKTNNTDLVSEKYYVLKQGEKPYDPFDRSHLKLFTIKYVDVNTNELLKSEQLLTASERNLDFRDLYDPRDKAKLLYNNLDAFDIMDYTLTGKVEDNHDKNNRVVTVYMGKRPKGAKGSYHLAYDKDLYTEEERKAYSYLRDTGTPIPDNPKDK

HEK293 [9] = assay: cells; type: functional, cell-based; settings: Homo sapiens; remark: listed apart in the source
HEK293 [10] = assay: NOD2 signaling inhibitors in MDP-stimulated cells, cell-based, uHTS, luminescence (AID 2001); type: functional; settings: Homo sapiens
Streptococcus = assay: Group A Streptococcus viability loss, dose response, counter-screen for streptokinase expression inhibitor project, luminescence, BacTiterGlo (AID 1915); type: functional, organism-based;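 further: potency for reduction of bacterial viability or growth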
INS1 = assay: beta cell apoptosis inhibitors, cytokine rescue, dose response, luminescence, retest (AID 449756); type: functional, cell-based; settings: Rattus norvegicus;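 further: cell death triggered by IL-1 beta plus TNF-alpha plus IFN-gamma mixture; protective hits raise ATP signal compared with cytokine alone wells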
[11] = inhibitors of firefly luciferase expression or activity, dose response, H4 neuroglioma cells, luminescence (AID 1990); type: functional, cell-based
[12] = Luminescence Cell-Based Dose Response HTS to Identify Inhibitors of 5'UTR Stem-Loop Driven Prion Protein mRNA Translation in H4 Neuroglioblastoma Cells. [Related pubchem assays: 1827 (Project Summary), 1813 (Primary HTS)]; type: functional
[13] = inhibitors of SNCA 5'UTR-driven reporter translation, confirmation, H4 neuroglioma cells, luminescence (AID 1988); type: functional, cell-based
[14] = cytotoxicity in HEK-293T cells, dose response, cytotoxicity control for TCR NF-kB inhibitor project, luminescence, T-cell screen hits (AID 489026); type: functional, cell-based;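 further: cells exposed to compound about 14 hours before the viability readout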
[15] = Luminescence Cell-Based Dose Retest to Confirm Inhibitors of Cancer Stem Cells. [Related pubchem assays (depositor defined):AID2717, AID2721]; type: functional; settings: Homo sapiens

Nonstructural protein 1, sequence (Q194T2 whole entry): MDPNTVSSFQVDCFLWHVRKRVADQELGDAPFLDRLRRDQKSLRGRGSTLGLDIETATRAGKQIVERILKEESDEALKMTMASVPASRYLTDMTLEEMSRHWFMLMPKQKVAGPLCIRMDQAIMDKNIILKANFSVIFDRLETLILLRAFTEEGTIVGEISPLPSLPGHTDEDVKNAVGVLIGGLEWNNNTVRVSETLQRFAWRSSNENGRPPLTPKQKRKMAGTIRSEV

Structure (SMILES): Cc1ccc(C(=O)CSc2nnc(-c3ccco3)n2C)cc1
- IC50 [1]: 9.62 µM (active)

Structure (SMILES): N#CC(C#N)=c1ccc2c(c1)N1C3=C(CCCC3)CC3CCCCC31N=2 (stereo unspecified)
- CC50 [2]: 29.5 µM (active)
- IC50 (Nonstructural protein 1): 11.2 µM (active)
- IC50 [1]: 11 µM (active)

Structure (SMILES): O=C(NNC(=S)NC(=O)c1ccccc1Cl)c1cccc([N+](=O)[O-])c1
- EC50 [3]: 5.96 µM (active)
- CC50 (Vero): > 25 µM (active)
- EC50 [4]: 11.2 µM (active)
- IC50 [5]: 22.3 µM (inactive)

Structure (SMILES): O=C(Nc1ccc([N+](=O)[O-])cc1)Nc1ccc(Cl)cc1F
- EC50 (HEK293 [6]): 18.7 µM (active)
- EC50 [7]: > 150 µM (not active)
- IC50 (HEK293 [8]): 3.12 µM (active)
- EC50 (Streptokinase A): > 150 µM (not active)
- IC50 (HEK293 [9]): > 20 µM (inactive)
- IC50 (HEK293 [10]): 3.26 µM (inactive)
- EC50 (Streptococcus): > 150 µM (not active)
- AC50 (INS1): 3.73 µM (active)

Structure (SMILES): COc1ccccc1NC(=O)C1=C(C)Nc2nc3ccccc3n2C1c1cccs1 (stereo unspecified)
- EC50 [11]: 7.89 µM (inconclusive)
- EC50 [12]: 9.88 µM (active)
- EC50 [13]: 5.03 µM (active)
- IC50 [14]: > 80 µM (inactive)

Structure (SMILES): O=C(Nc1ccc(S(=O)(=O)N2CCOCC2)cc1)c1cc(-c2cc(Cl)ccc2O)n[nH]1
- EC50 (HEK293 [6]): > 20 µM (inactive)
- IC50 (HEK293 [8]): 6.05 µM (active)
- IC50 (HEK293 [9]): 7.45 µM (active)
- IC50 (HEK293 [10]): 6.8 µM (active)
- AC50 [15]: 0.962 µM (active)
- CC50 (Vero): 10.9 µM (active)
